Assay results as given in US9234002B2, “Small peptide specific for lung cancer and application thereof” (Guangzhou Peptide Medical Technology Co., Ltd., priority 2012, dated 2016).

Tests used:
[1] = system: NCI-H1975 (adenocarcinoma) and L78 (squamous carcinoma); assay: Median survival of lung cancer bearing nude mice after treatment; format: in vivo, human; conditions: tumor bearing nude mice, tail vein injection
Method: Two human lung cancer cell lines comprising NCI-H1975 (adenocarcinoma) and L78 (squamous carcinoma) were maintained in RPMI 1640 (GIBCO, Mississauga, Canada) supplemented with 10% heat-inactivated calf serum (HyClone, Logan, Utah) and L-glutamine (Beyotime, Jiangsu, China) in an incubator at 37° C. with 5% CO2. Cells were harvested with trypsin/EDTA, washed with PAS twice and re-suspended in free serum culture medium at a concentration of 5×10^6 cells/mL. The suspended cells (0.2 mL) were inoculated s.c. into the back of nude mice to establish the lung cancer models, respectively. There are twelve nude mice in each group of cancer model. Tumor growth and general states such as mental, diet and weight were monitored periodically. When tumors reached approximately 1 cm in mean diameter, the tumor bearing mice were used in therapeutic efficacy studies.
The tumor size was measured two dimensionally on days 3, 6, 9, 12, 15, 18, 21, 24, 27 and 30 after injection, while mice weight was also determined. The tumor volume was calculated by the formula volume V=(4/3)×π×R1×R2, where R1 is radius 1 and R2 is radius 2 and R1<R2. Growth curves of the tumors were constructed according to these tumor volumes.

[2] = Toxicity of radiotherapeutic agent in mice bearing lung cancer cells (hematology, serum biochemistry, histopathology); format: in vivo
Method: After treatment with radiotherapeutic agent for three weeks, the mice were sacrificed and the major tissues or organs such as blood, liver, kidneys, heart, lungs and spleen were removed completely. A routine blood test was performed using an automatic hematology analyzer to measure the following parameters: white blood cell (WBC), red blood cell (RBC) and platelet (PLT) count. Clinical biochemicals parameters measured with an automated biochemical analyzer were aspartate transferase (AST), alanine transferase (ALT), blood urea nitrogen (BUN) and creatinine (CRE). Histopathological and ultrastructural observations were performed on the preserved organs and tissues stated above.

[3] = mice bearing lung cancer (24 h)

## [131I-].[Na+] [^131I, iodine-131]
[1]
  median survival time: 42 days
[2]; [3]
  ALT: 60.7 ± 7.8 U/L
  AST: 171.7 ± 0.8 U/L
  BUN: 9.4 ± 1.3 mmol/L
  CRE: 42.7 ± 3.8 µmol/L
  PLT: 991.2 ± 52.5 G/L
  RBC: 7.8 ± 0.2 T/L
  WBC: 13.6 ± 0.7 G/L
[2]; mice bearing lung cancer cells
  leukocyte count versus control: decrease
